Source: patent US7968596B2, “Preparation and diabetic use of Gibberellins” (Australian Biomedical Company Pty, Ltd., priority 2001, dated 2011)

Key:
Diabetic Rats = assay: Effect on streptozotocin-induced diabetic rats (blood glucose, body weight); format: in vivo, Male Wistar rats; details: for Blood glucose level after day 20th, 2 hours: 2 hours after administration; for Blood glucose level after day 20th, 5 hours: 5 hours after administration
Protocol: Male Wistar rats (290 g˜330 g) were weighed and lightly anaesthetized (4% halothane, 2:1 O2/N2O) so that blood glucose levels could be measured via a tail vein sample, using a Precision Q.I.D. glucometer. Diabetes was then induced by a single tail vein injection of streptozotocin (STZ, 60 mg/kg), which was dissolved immediately prior to use in citrate buffer (50 mM citric acid and 50 mM trisodium citrate; pH 4.5). An equivalent volume of citrate buffer was injected into age-matched control rats.
Rats were housed in groups of two during the experiment. Animal house temperature was maintained at 20° C. (±2° C.) with a 12 hour light/dark cycle, and rats were allowed free access to food and water.
Forty-eight hours after the administration of STZ (60 mg/kg), a blood glucose sample was taken and animals with blood glucose levels≧16 mM were considered to be diabetic. Rats were then randomly divided into groups. The slow-acting, Lente Monotard insulin was used and Gibberellin sodium salt was made up as required in distilled water immediately prior to use. Blood glucose readings were obtained two hours or 5 hours after the administration of drug(s) every three days.

Human skin cell culture = assay: Effect of Gibberellin A3 on cell growth compared to EGF in vitro (human skin cell culture, keratinocytes media); format: cell-based; details: for Results: cell growth / cell division rate: five days
Protocol: Human skin cell culture experiments were conducted by using keratinocytes media. Each well was seeded with 1,500 cells. Incubation was carried out at 37° C. for a period of five days.

skin and eyes = details: in vivo; cited from earlier work
mice = details: cited from earlier work
rats = details: cited from earlier work
[1] = Group 1: Insulin 4 unit/rat sub-cutaneous daily
[2] = Group 2: Insulin 2 unit/rat sub-cutaneous daily
[3] = Keratinocyte medium containing no EGF, but containing Gibberellin A3 (5 μg/ml)
[4] = Perfect keratinocyte medium (containing EGF) plus Gibberellin A3 (5 μg/ml)

Compound | Body weight change on the 30th day (Diabetic Rats; [1]) | Blood glucose level after day 20th, 2 hours (Diabetic Rats; Group 1: Insulin 4 unit/rat sub-cutaneous daily, STZ diabetic rats) | Blood glucose level after day 20th, 5 hours (Diabetic Rats; [1]) | Body weight change on the 30th day (Diabetic Rats; [2]) | Blood glucose level after day 20th, 2 hours (Diabetic Rats; [2]) | Blood glucose level after day 20th, 5 hours (Diabetic Rats; [2]) | effect of presence of both EGF and Gibberellin A3 on the rate of cell growth (Human skin cell culture; Experiment 3.2, EGF plus Gibberellin A3 5 μg/ml) | stimulation of cell growth by Gibberellin A3 alone, compared to EGF (Human skin cell culture; Experiment 3.4, no EGF, Gibberellin A3 5 μg/ml) | Results: cell growth (Human skin cell culture; [3]) | cell division rate (Human skin cell culture; [3]) | Results: cell growth (Human skin cell culture; [4]) | cell division rate (Human skin cell culture; [4]) | irritation to skin and eyes (skin and eyes) | acute oral LD50 (mice) | acute oral LD50 (rats)
Insulin: slow-acting, Lente Monotard insulin | +8% | 4~5 mM | 3~5 mM | −8% | 15~18 mM | 14~16 mM | – | – | – | – | – | – | – | – | –
C=C1C[C@]23C[C@@]1(O)CC[C@H]2[C@@]12C=C[C@H](O)[C@@](C)(C(=O)O1)[C@H]2[C@@H]3C(=O)O [Gibberellin A3] | – | – | – | – | – | – | no additive effect | as effectively as EGF | Very good growth (cell | division rate = 100) | Very good growth (cell | division rate = 100) | non-irritating | > 15000 mg/kg | 6300 mg/kg
